The results in this text go back to ChEMBL document CHEMBL1147112 (2007).

Converted amounts (≈) assume the structure as drawn. The source made the active and inactive calls. The calls are words filed in the database; no cut-off is given here.

The test system of test [1] is Staphylococcus aureus. As to the kind of experiment: Antimicrobial activity against methicillin-susceptible Staphylococcus aureus ATCC 29213 in human monocyte-derived macrophages at 0.5 ug/ml assessed as bacterial viability after 2 hrs. In kind it is functional.
For test [2], the system named is Staphylococcus aureus. Description: Antimicrobial activity against methicillin-resistant Staphylococcus aureus ATCC 43300 in human monocyte-derived macrophages at 5 ug/ml assessed as bacterial viability after 24 hrs. In kind it is functional.
Test [3] deals with Staphylococcus aureus. Description: Antimicrobial activity against methicillin-susceptible Staphylococcus aureus ATCC 29213 in human monocyte-derived macrophages at 0.5 ug/ml assessed as bacterial viability after 4 hrs. In kind it is functional.
Test [4] relates to Staphylococcus aureus. As to the kind of experiment: Antimicrobial activity against methicillin-susceptible Staphylococcus aureus ATCC 29213. In kind it is functional.
In test [5] the test system is Staphylococcus aureus. Description: Antimicrobial activity against methicillin-resistant Staphylococcus aureus ATCC 43300 in human monocyte-derived macrophages at 5 ug/ml assessed as bacterial viability after 4 hrs. In kind it is functional.
The test system of test [6] is Staphylococcus aureus. Description: Antimicrobial activity against methicillin-resistant Staphylococcus aureus ATCC 43300 in human monocyte-derived macrophages at 0.25 ug/ml assessed as bacterial viability after 24 hrs. In kind it is functional.
Test [7] relates to Staphylococcus aureus. As to the kind of experiment: Antimicrobial activity against methicillin-susceptible Staphylococcus aureus ATCC 29213 in human monocyte-derived macrophages at 2.5 ug/ml assessed as bacterial viability after 2 hrs. In kind it is functional.
Test [8] deals with Staphylococcus aureus. Description: Antimicrobial activity against methicillin-resistant Staphylococcus aureus ATCC 43300 in human monocyte-derived macrophages at 0.5 ug/ml assessed as bacterial viability after 4 hrs. In kind it is functional.
The test system of test [9] is Staphylococcus aureus. Description: Antimicrobial activity against methicillin-susceptible Staphylococcus aureus ATCC 29213 in human monocyte-derived macrophages at 2.5 ug/ml assessed as bacterial viability after 24 hrs. In kind it is functional.
Test [10] deals with Staphylococcus aureus. Description: Antimicrobial activity against methicillin-susceptible Staphylococcus aureus ATCC 29213 in human monocyte-derived macrophages at 0.25 ug/ml assessed as bacterial viability after 24 hrs. It counts as functional.
The subject of test [11] is Staphylococcus aureus. Description: Antimicrobial activity against methicillin-resistant Staphylococcus aureus ATCC 43300 in human monocyte-derived macrophages at 0.25 ug/ml assessed as bacterial viability after 4 hrs. In kind it is functional.
Test [12] has as its system Staphylococcus aureus. As to the kind of experiment: Antimicrobial activity against methicillin-susceptible Staphylococcus aureus ATCC 29213 in human monocyte-derived macrophages at 5 ug/ml assessed as bacterial viability after 4 hrs. It counts as functional.
For test [13], the system named is Staphylococcus aureus. Description: Extracellular killing of Staphylococcus aureus 8111 in MH-2 broth at 0.5 ug/ml assessed as suppression of number of viable bacteria after 24 hrs. In kind it is functional, organism-based.
Test [14] relates to Staphylococcus aureus. Description: Antimicrobial activity against methicillin-resistant Staphylococcus aureus ATCC 43300 in human monocyte-derived macrophages at 0.25 ug/ml assessed as bacterial viability after 2 hrs. It counts as functional.
Test [15] has as its system Staphylococcus aureus. Description: Antimicrobial activity against methicillin-resistant Staphylococcus aureus ATCC 43300 in human monocyte-derived macrophages at 2.5 ug/ml assessed as bacterial viability after 24 hrs. It counts as functional.
Test [16] concerns Staphylococcus aureus. As to the kind of experiment: Antimicrobial activity against methicillin-susceptible Staphylococcus aureus ATCC 29213 in human monocyte-derived macrophages at 0.25 ug/ml assessed as bacterial viability after 4 hrs. It counts as functional.
Test [17] concerns Staphylococcus aureus. As to the kind of experiment: Antimicrobial activity against methicillin-susceptible Staphylococcus aureus ATCC 29213 in human monocyte-derived macrophages at 0.5 ug/ml assessed as bacterial viability after 24 hrs. It counts as functional.
Test [18] deals with Staphylococcus aureus. As to the kind of experiment: Antimicrobial activity against methicillin-resistant Staphylococcus aureus ATCC 43300 in human monocyte-derived macrophages at 0.5 ug/ml assessed as bacterial viability after 24 hrs. In kind it is functional.
Test [19] deals with Staphylococcus aureus. As to the kind of experiment: Antimicrobial activity against methicillin-resistant Staphylococcus aureus 8111. In kind it is functional.
Test [20] concerns Staphylococcus aureus. Description: Antimicrobial activity against methicillin-susceptible Staphylococcus aureus ATCC 29213 in human monocyte-derived macrophages at 0.25 ug/ml assessed as bacterial viability after 2 hrs. In kind it is functional.
For test [21], the system named is Staphylococcus aureus. Description: Antimicrobial activity against methicillin-resistant Staphylococcus aureus ATCC 43300. It counts as functional.
In test [22] the test system is Staphylococcus aureus. As to the kind of experiment: Antimicrobial activity against methicillin-resistant Staphylococcus aureus ATCC 43300 in human monocyte-derived macrophages at 2.5 ug/ml assessed as bacterial viability after 2 hrs. In kind it is functional.
The test system of test [23] is Staphylococcus aureus. As to the kind of experiment: Antimicrobial activity against methicillin-susceptible Staphylococcus aureus ATCC 29213 in human monocyte-derived macrophages at 5 ug/ml assessed as bacterial viability after 2 hrs. It counts as functional.
Test [24] deals with Staphylococcus aureus. Description: Antimicrobial activity against methicillin-susceptible Staphylococcus aureus ATCC 29213 in human monocyte-derived macrophages at 5 ug/ml assessed as bacterial viability after 24 hrs. It counts as functional.
For test [25], the system named is Staphylococcus aureus. Description: Antimicrobial activity against methicillin-susceptible Staphylococcus aureus ATCC 29213 in human monocyte-derived macrophages at 2.5 ug/ml assessed as bacterial viability after 4 hrs. In kind it is functional.
Test [26] relates to Staphylococcus aureus. As to the kind of experiment: Antimicrobial activity against methicillin-resistant Staphylococcus aureus ATCC 43300 in human monocyte-derived macrophages at 2.5 ug/ml assessed as bacterial viability after 4 hrs. In kind it is functional.
Test [27] relates to Staphylococcus aureus. As to the kind of experiment: Antimicrobial activity against methicillin-resistant Staphylococcus aureus ATCC 43300 in human monocyte-derived macrophages at 5 ug/ml assessed as bacterial viability after 2 hrs. It counts as functional.
For test [28], the system named is Staphylococcus aureus. Description: Antimicrobial activity against methicillin-resistant Staphylococcus aureus ATCC 43300 in human monocyte-derived macrophages at 0.5 ug/ml assessed as bacterial viability after 2 hrs. It counts as functional.

One may read the MIC as the lowest concentration found to suppress growth. Higher therefore signals weaker potency. As to `CCCCCCCCCC(=O)N[C@@H](Cc1c[nH]c2ccccc12)C(=O)N[C@H](CC(N)=O)C(=O)N[C@@H](CC(=O)O)C(=O)N[C@@H]1C(=O)NCC(=O)N[C@@H](CCCN)C(=O)N[C@@H](CC(=O)O)C(=O)N[C@H](C)C(=O)N[C@@H](CC(=O)O)C(=O)NCC(=O)N[C@H](CO)C(=O)N[C@@H]([C@H](C)CC(=O)O)C(=O)N[C@@H](CC(=O)c2ccccc2N)C(=O)O[C@@H]1C`, the log10CFU/ml in test [1] is on record as -0.59; in test [2], -1.06; in [3], 0.76; in test [5], -1.8; in test [6] it was 2.1; in test [7], -1.7. The log10CFU/ml in test [8] was 0; in [9], -0.32; in [10], 2.02; in test [11] it was 1.27; in test [12], -2.05; in [14], 0.14. In addition, the log10CFU/ml is listed as -0.83 in test [15]; 1.84 in test [16]; 2 in test [17]; 1.93 in [18]; 0.57 in test [20]; -1.35 in test [22]. In addition, the log10CFU/ml in test [23] was -2; in test [24], -0.52; in test [25] it was -1.75; in test [26], -1.48; in test [27], -1.52. The MIC in [4], in test [19] and in test [21] was 0.5 µg/mL (≈ 0.309 µM) in each case. Besides, the result in test [13] was Active.
With `Cc1onc(-c2ccccc2)c1C(=O)N[C@@H]1C(=O)N2[C@@H]1SC(C)(C)[C@@H]2C(=O)O` [OXACILLIN], the log10CFU/ml is recorded as -0.48 in test [1]; -3 in test [2]; -1.51 in test [3]; -1.75 in test [5]; -1.02 in test [6]; -1.35 in test [8]. The log10CFU/ml in test [9] is given as -2.7; in test [10], -1.47; in test [12], -1.72; in test [14] it was -0.85; in test [28], -0.85; in [15], -2.7. Also, the log10CFU/ml is on record as -0.05 in [16]; -1.54 in [17]; -2.52 in test [18]; 0.21 in [20]; -0.94 in test [22]; -0.91 in test [23]. Further, the log10CFU/ml in test [24] is -2.7; in test [25], -2.05; in [26] it was -1.32; in test [27], -1.27. Also, the MIC in test [4] amounted to 0.5 µg/mL (≈ 1.25 µM); in [19], 64 µg/mL (≈ 159 µM); in test [21], 16 µg/mL (≈ 39.9 µM).
Turning to `CO[C@H]1/C=C/O[C@@]2(C)Oc3c(C)c(O)c4c(O)c(c(/C=N/N5CCN(C)CC5)c(O)c4c3C2=O)NC(=O)/C(C)=C\C=C\[C@H](C)[C@H](O)[C@@H](C)[C@@H](O)[C@@H](C)[C@H](OC(C)=O)[C@@H]1C` [RIFAMPIN], the MIC in test [4], in [19] and in test [21] was 0.015 µg/mL (≈ 0.0182 µM) in each case.
Regarding `CN[C@H](CC(C)C)C(=O)N[C@H]1C(=O)N[C@@H](CC(N)=O)C(=O)N[C@H]2C(=O)N[C@H]3C(=O)N[C@H](C(=O)N[C@H](C(=O)O)c4cc(O)cc(O)c4-c4cc3ccc4O)[C@H](O)c3ccc(c(Cl)c3)Oc3cc2cc(c3O[C@@H]2O[C@H](CO)[C@@H](O)[C@H](O)[C@H]2O[C@H]2C[C@](C)(N)[C@H](O)[C@H](C)O2)Oc2ccc(cc2Cl)[C@H]1O` [VANCOMYCIN], the log10CFU/ml in [1] was 0.51; in test [2], -1.62; in [3], 1.85; in test [5], -0.84; in test [6] it was 2.47; in test [7], -0.86. The log10CFU/ml in test [8] is 0.03; in test [9], -0.46; in test [10] it was 2.17; in [11], 1.58; in test [12], -1.14; in test [14], 0.6. Besides, the log10CFU/ml is -0.39 in test [28]; -1.6 in test [15]; 2.14 in test [16]; 2.17 in test [17]; 2.23 in test [18]; 0.98 in [20]. In addition, the log10CFU/ml in test [22] is listed as -0.38; in [23], -0.85; in test [24], -0.85; in test [25], -1.07; in test [26], -0.88; in [27], -0.51.
In the case of GENTAMICIN, the results for the MIC in test [4], in test [19] and in [21] were 1 µg/mL, 2 µg/mL and 128 µg/mL, respectively.
